In ChEMBL document CHEMBL1201861, “Genomics of Drug Sensitity in Cancer screening data, Wellcome Trust Sanger Institute”:

How the values were obtained:
Assay in all cases: cells
KMOE-2 = format: functional, cell-based, Homo sapiens; conditions: Homo sapiens, KMOE-2;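 further: growth inhibition of human KMOE-2 cells, read out with a cell viability assay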
Description: SANGER: Inhibition of human KMOE-2 cell growth in a cell viability assay.

NCI-H1770 = format: functional, cell-based, Homo sapiens; conditions: Homo sapiens, NCI-H1770;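 further: growth inhibition of NCI-H1770 cells determined with a viability readout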
Description: SANGER: Inhibition of human NCI-H1770 cell growth in a cell viability assay.

MC116 = format: functional, cell-based, Homo sapiens; conditions: Homo sapiens, MC116;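 further: growth inhibition of MC116 cells, read out with a cell viability assay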
Description: SANGER: Inhibition of human MC116 cell growth in a cell viability assay.

SK-PN-DW = format: functional, cell-based, Homo sapiens; conditions: Homo sapiens, SK-PN-DW;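 further: growth inhibition measured with a viability assay on these cells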
Description: SANGER: Inhibition of human SK-PN-DW cell growth in a cell viability assay.

697 = format: functional, cell-based, Homo sapiens; conditions: Homo sapiens
Description: SANGER: Inhibition of human 697 cell growth in a cell viability assay.

HT = format: functional, cell-based, Homo sapiens; conditions: Homo sapiens, HT
Description: SANGER: Inhibition of human HT cell growth in a cell viability assay.

NCI-H1155 = format: functional, cell-based, Homo sapiens; conditions: Homo sapiens, NCI-H1155;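 further: cell growth inhibition measured by a viability assay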
Description: SANGER: Inhibition of human NCI-H1155 cell growth in a cell viability assay.

LB2518-MEL = format: functional, cell-based, Homo sapiens; conditions: Homo sapiens, LB2518-MEL;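 further: growth inhibition of human LB2518-MEL cells, measured with a cell viability assay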
Description: SANGER: Inhibition of human LB2518-MEL cell growth in a cell viability assay.

OS-RC-2 = format: functional, cell-based, Homo sapiens; conditions: Homo sapiens, OS-RC-2;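 further: growth inhibition of human OS-RC-2 cells, measured by a cell viability assay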
Description: SANGER: Inhibition of human OS-RC-2 cell growth in a cell viability assay.

SK-MEL-1 = format: functional, cell-based, Homo sapiens; conditions: Homo sapiens, SK-MEL-1;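 further: growth inhibition of human SK-MEL-1 cells, read out by a cell viability assay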
Description: SANGER: Inhibition of human SK-MEL-1 cell growth in a cell viability assay.

LXF-289 cell line = format: functional, cell-based, Homo sapiens; conditions: Homo sapiens, LXF-289
Description: SANGER: Inhibition of human LXF-289 cell growth in a cell viability assay.

BB65-RCC = format: functional, cell-based, Homo sapiens; conditions: Homo sapiens, BB65-RCC;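 further: growth inhibition of the cell line, measured with a cell viability assay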
Description: SANGER: Inhibition of human BB65-RCC cell growth in a cell viability assay.

SH-4 = format: functional, cell-based, Homo sapiens; conditions: Homo sapiens, SH-4;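 further: growth inhibition of SH-4 cells, read out with a cell viability assay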
Description: SANGER: Inhibition of human SH-4 cell growth in a cell viability assay.

SF-539 = format: functional, cell-based, Homo sapiens; conditions: Homo sapiens, SF-539;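 further: Read-out is a cell viability assay, with IC50 reflecting inhibition of cell growth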
Description: SANGER: Inhibition of human SF539 cell growth in a cell viability assay.

A498 = format: functional, cell-based, Homo sapiens; conditions: Homo sapiens, A498;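 further: growth inhibition of human A498 cells, read out with a cell viability assay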
Description: SANGER: Inhibition of human A498 cell growth in a cell viability assay.

MV4-11 = format: functional, cell-based, Homo sapiens, MV-4-11; conditions: Homo sapiens, MV4-11;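 further: cell viability readout measuring growth inhibition of human MV-4-11 cells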
Description: SANGER: Inhibition of human MV-4-11 cell growth in a cell viability assay.

HAL-01 = format: functional, cell-based, Homo sapiens; conditions: Homo sapiens, HAL-01;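 further: growth inhibition of human HAL-01 cells, read out with a cell viability assay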
Description: SANGER: Inhibition of human HAL-01 cell growth in a cell viability assay.

GT3TKB = format: functional, cell-based, Homo sapiens; conditions: Homo sapiens, GT3TKB;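 further: growth inhibition of the cell line, read out with a cell viability assay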
Description: SANGER: Inhibition of human GT3TKB cell growth in a cell viability assay.

GR-ST = format: functional, cell-based, Homo sapiens; conditions: Homo sapiens, GR-ST
Description: SANGER: Inhibition of human GR-ST cell growth in a cell viability assay.

U-266 = format: functional, cell-based, Homo sapiens; conditions: Homo sapiens, U-266
Description: SANGER: Inhibition of human U-266 cell growth in a cell viability assay.

EM-2 = format: functional, cell-based, Homo sapiens; conditions: Homo sapiens, EM-2;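 further: growth inhibition of EM-2 cells, read out with a cell viability assay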
Description: SANGER: Inhibition of human EM-2 cell growth in a cell viability assay.

SW 954 = format: functional, cell-based, Homo sapiens; conditions: Homo sapiens, SW 954;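 further: growth inhibition of SW954 human cancer cells, read out as cell viability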
Description: SANGER: Inhibition of human SW954 cell growth in a cell viability assay.

LB1047-RCC = format: functional, cell-based, Homo sapiens; conditions: Homo sapiens, LB1047-RCC;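 further: inhibition of cell growth, determined with a cell viability assay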
Description: SANGER: Inhibition of human LB1047-RCC cell growth in a cell viability assay.

SK-NEP-1 = format: functional, cell-based, Homo sapiens; conditions: Homo sapiens, SK-NEP-1;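 further: growth inhibition of human SK-NEP-1 cells, read out by a cell viability assay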
Description: SANGER: Inhibition of human SK-NEP-1 cell growth in a cell viability assay.

LU-134-A = format: functional, cell-based, Homo sapiens; conditions: Homo sapiens, LU-134-A
Description: SANGER: Inhibition of human LU-134-A cell growth in a cell viability assay.

TE-1 = format: functional, cell-based, Homo sapiens; conditions: Homo sapiens, TE-1;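 further: growth inhibition of the human TE-1 cell line, read out with a cell viability assay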
Description: SANGER: Inhibition of human TE-1 cell growth in a cell viability assay.

Ramos-2G6-4C10 = format: functional, cell-based, Homo sapiens; conditions: Homo sapiens, Ramos-2G6-4C10;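 further: growth inhibition of the cell line, measured by a cell viability read-out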
Description: SANGER: Inhibition of human Ramos-2G6-4C10 cell growth in a cell viability assay.

D-502MG = format: functional, cell-based, Homo sapiens; conditions: Homo sapiens, D-502MG
Description: SANGER: Inhibition of human D-502MG cell growth in a cell viability assay.

LB2241-RCC = format: functional, cell-based, Homo sapiens; conditions: Homo sapiens, LB2241-RCC;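 further: cell viability assay measuring how strongly the cultured human renal carcinoma line is prevented from growing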
Description: SANGER: Inhibition of human LB2241-RCC cell growth in a cell viability assay.

RH-1 = format: functional, cell-based, Homo sapiens; conditions: Homo sapiens, RH-1;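 further: growth inhibition of human RH-1 cells, read out with a cell viability assay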
Description: SANGER: Inhibition of human RH-1 cell growth in a cell viability assay.

BE-13 = format: functional, cell-based, Homo sapiens; conditions: Homo sapiens, BE-13;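 further: growth inhibition of human BE-13 cells, measured with a cell viability assay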
Description: SANGER: Inhibition of human BE-13 cell growth in a cell viability assay.

MLMA = format: functional, cell-based, Homo sapiens; conditions: Homo sapiens, MLMA;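 further: growth inhibition of MLMA cells (human), determined through a cell viability readout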
Description: SANGER: Inhibition of human MLMA cell growth in a cell viability assay.

EW-3 = format: functional, cell-based, Homo sapiens; conditions: Homo sapiens, EW-3;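 further: cell viability assay read-out, IC50 reflects inhibition of growth of the EW-3 cells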
Description: SANGER: Inhibition of human EW-3 cell growth in a cell viability assay.

MOLT-4 = format: functional, cell-based, Homo sapiens; conditions: Homo sapiens, MOLT-4;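 further: growth inhibition of MOLT-4 cells, determined with a cell viability readout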
Description: SANGER: Inhibition of human MOLT-4 cell growth in a cell viability assay.

Mo = format: functional, cell-based, Homo sapiens; conditions: Homo sapiens, Mo
Description: SANGER: Inhibition of human Mo-T cell growth in a cell viability assay.

MEG-01 = format: functional, cell-based, Homo sapiens; conditions: Homo sapiens, MEG-01;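 further: growth inhibition of MEG-01 cells, read out by a cell viability assay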
Description: SANGER: Inhibition of human MEG-01 cell growth in a cell viability assay.

CAS-1 = format: functional, cell-based, Homo sapiens; conditions: Homo sapiens, CAS-1;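 further: growth inhibition of CAS-1 cells, measured with a cell viability assay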
Description: SANGER: Inhibition of human CAS-1 cell growth in a cell viability assay.

RXF 393 = format: functional, cell-based, Homo sapiens; conditions: Homo sapiens, RXF 393;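 further: growth inhibition of human RXF 393 cells, read out with a cell viability assay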
Description: SANGER: Inhibition of human RXF393 cell growth in a cell viability assay.

DMS-114 = format: functional, cell-based, Homo sapiens; conditions: Homo sapiens, DMS-114
HCE-T = format: functional, cell-based, Homo sapiens; conditions: Homo sapiens, HCE-T;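 further: cell viability assay read-out, reporting inhibition of HCE-T cell growth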
Description: SANGER: Inhibition of human HCE-T cell growth in a cell viability assay.

LS-1034 = format: functional, cell-based, Homo sapiens; conditions: Homo sapiens, LS-1034
Description: SANGER: Inhibition of human LS-1034 cell growth in a cell viability assay.

LB996-RCC = format: functional, cell-based, Homo sapiens; conditions: Homo sapiens, LB996-RCC
Description: SANGER: Inhibition of human LB996-RCC cell growth in a cell viability assay.

OCI-AML2 = format: functional, cell-based, Homo sapiens; conditions: Homo sapiens, OCI-AML2;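 further: growth inhibition of OCI-AML2 cells, read out with a cell viability assay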
Description: SANGER: Inhibition of human OCI-AML2 cell growth in a cell viability assay.

A4-Fuk = format: functional, cell-based, Homo sapiens; conditions: Homo sapiens, A4-Fuk;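 further: growth inhibition of A4-Fuk cells, read out by a cell viability assay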
Description: SANGER: Inhibition of human A4-Fuk cell growth in a cell viability assay.

NCI-H23 = format: functional, cell-based, Homo sapiens; conditions: Homo sapiens, NCI-H23;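 further: cell viability assay measuring growth inhibition of NCI-H23 cells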
Description: SANGER: Inhibition of human NCI-H23 cell growth in a cell viability assay.

HuTu80 = format: functional, cell-based, Homo sapiens, HUTU-80; conditions: Homo sapiens, HuTu80;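 further: growth inhibition of HuTu80 human cells, determined with a cell viability readout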
Description: SANGER: Inhibition of human HUTU-80 cell growth in a cell viability assay.

ES3 = format: functional, cell-based, Homo sapiens; conditions: Homo sapiens, ES3;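 further: growth inhibition of ES3 cells, read out with a cell viability assay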
Description: SANGER: Inhibition of human ES3 cell growth in a cell viability assay.

SNU-C2B = format: functional, cell-based, Homo sapiens; conditions: Homo sapiens, SNU-C2B;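 further: cell viability readout used to measure compound-driven suppression of SNU-C2B cell proliferation, IC50 marking half-maximal growth inhibition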
Description: SANGER: Inhibition of human SNU-C2B cell growth in a cell viability assay.

A704 = format: functional, cell-based, Homo sapiens; conditions: Homo sapiens, A704;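 further: growth inhibition of human A704 cells, read out with a cell viability assay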
Description: SANGER: Inhibition of human A704 cell growth in a cell viability assay.

Q: Which results are given for COc1cc(N2CCN(C)CC2)ccc1Nc1ncc2c(n1)N(C)c1ccccc1C(=O)N2C?
A: IC50 (KMOE-2): > 8 µM; IC50 (NCI-H1770): 4.74 µM; IC50 (MC116): 7.22 µM; IC50 (SK-PN-DW): > 8 µM; IC50 697: 0.654 µM; IC50 (HT): > 8 µM; IC50 (NCI-H1155): > 8 µM; IC50 (LB2518-MEL): > 8 µM; IC50 (OS-RC-2): > 8 µM; IC50 (SK-MEL-1): > 8 µM; IC50 (LXF-289 cell line): > 8 µM; IC50 (BB65-RCC): > 8 µM; IC50 (SH-4): 1.99 µM; IC50 (SF-539): > 8 µM; IC50 (A498): > 8 µM; IC50 (MV4-11): 1.61 µM; IC50 (HAL-01): 2.12 µM; IC50 (GT3TKB): > 8 µM; IC50 (GR-ST): 7.68 µM; IC50 (U-266): > 8 µM; IC50 (EM-2): > 8 µM; IC50 (SW 954): 4.85 µM; IC50 (LB1047-RCC): > 8 µM; IC50 (SK-NEP-1): > 8 µM; IC50 (LU-134-A): > 8 µM; IC50 (TE-1): > 8 µM; IC50 (Ramos-2G6-4C10): 5.67 µM; IC50 (D-502MG): > 8 µM; IC50 (LB2241-RCC): > 8 µM; IC50 (RH-1): > 8 µM; IC50 (BE-13): > 8 µM; IC50 (MLMA): > 8 µM; IC50 (EW-3): > 8 µM; IC50 (MOLT-4): > 8 µM; IC50 (Mo): > 8 µM; IC50 (MEG-01): 4.76 µM; IC50 (CAS-1): > 8 µM; IC50 (RXF 393): > 8 µM; IC50 (DMS-114): > 8 µM; IC50 (HCE-T): > 8 µM; IC50 (LS-1034): > 8 µM; IC50 (LB996-RCC): 5.37 µM; IC50 (OCI-AML2): 3.6 µM; IC50 (A4-Fuk): 3.86 µM; IC50 (NCI-H23): > 8 µM; IC50 (HuTu80): > 8 µM; IC50 (ES3): > 8 µM

Q: Which results are given for Cc1cc([N+](=O)[O-])ccc1NS(=O)(=O)c1cc(Cl)ccc1Cl?
A: IC50 (KMOE-2): 3.84 µM; IC50 (NCI-H1770): 17.1 µM; IC50 (MC116): 3.14 µM; IC50 (SK-PN-DW): 11.6 µM; IC50 697: > 32 µM; IC50 (HT): 2.75 µM; IC50 (NCI-H1155): > 32 µM; IC50 (LB2518-MEL): 1.16 µM; IC50 (OS-RC-2): 6.75 µM; IC50 (SK-MEL-1): > 32 µM; IC50 (LXF-289 cell line): 5.36 µM; IC50 (BB65-RCC): 6.37 µM; IC50 (SH-4): 1.38 µM; IC50 (SF-539): 21 µM; IC50 (A498): > 32 µM; IC50 (SNU-C2B): 4.29 µM; IC50 (MV4-11): 5.23 µM; IC50 (HAL-01): 12.4 µM; IC50 (GT3TKB): 2.9 µM; IC50 (GR-ST): 10.3 µM; IC50 (U-266): 22.9 µM; IC50 (EM-2): 16.3 µM; IC50 (SW 954): 7.26 µM; IC50 (LB1047-RCC): 6.74 µM; IC50 (SK-NEP-1): 19.2 µM; IC50 (LU-134-A): > 32 µM; IC50 (TE-1): 7.65 µM; IC50 (Ramos-2G6-4C10): 6 µM; IC50 (D-502MG): 0.607 µM; IC50 (LB2241-RCC): 2.61 µM; IC50 (RH-1): 10.2 µM; IC50 (BE-13): 7.53 µM; IC50 (MLMA): 8.96 µM; IC50 (EW-3): > 32 µM; IC50 (MOLT-4): > 32 µM; IC50 (Mo): > 32 µM; IC50 (MEG-01): > 32 µM; IC50 (CAS-1): 8.88 µM; IC50 (RXF 393): > 32 µM; IC50 (DMS-114): > 32 µM; IC50 (HCE-T): 9.59 µM; IC50 (LS-1034): 5.55 µM; IC50 (LB996-RCC): 14.5 µM; IC50 (OCI-AML2): 2.52 µM; IC50 (A4-Fuk): > 32 µM; IC50 (A704): 2.58 µM; IC50 (NCI-H23): > 32 µM; IC50 (HuTu80): 1.15 µM; IC50 (ES3): 7.72 µM
